target: GLP-1 Receptor (Homo sapiens, UniProt P43220); assay: GLP-1R agonist cAMP stimulation assay (HEK293/GLP1R/CRE-LUC cells, cAMP dynamic 2 Kit); format: cell-based; settings: HEK293/CRE-Luc cell line stably expressing the GLP-1 Receptor, 30 min at 37° C.
How it was run: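 HEK293 cells stably expressing human GLP-1R with CRE-luciferase, 1000 cells/well in DPBS with 0.5 mM IBMX and 0.1% BSA, treated with compound in 1/2-log serial dilution for 30 min at 37 °C. cAMP then detected by HTRF (cAMP-d2 plus anti-cAMP cryptate), 1 h at room temperature in the dark.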

GLP-1 Receptor, sequence (P43220 24-463, species assumed): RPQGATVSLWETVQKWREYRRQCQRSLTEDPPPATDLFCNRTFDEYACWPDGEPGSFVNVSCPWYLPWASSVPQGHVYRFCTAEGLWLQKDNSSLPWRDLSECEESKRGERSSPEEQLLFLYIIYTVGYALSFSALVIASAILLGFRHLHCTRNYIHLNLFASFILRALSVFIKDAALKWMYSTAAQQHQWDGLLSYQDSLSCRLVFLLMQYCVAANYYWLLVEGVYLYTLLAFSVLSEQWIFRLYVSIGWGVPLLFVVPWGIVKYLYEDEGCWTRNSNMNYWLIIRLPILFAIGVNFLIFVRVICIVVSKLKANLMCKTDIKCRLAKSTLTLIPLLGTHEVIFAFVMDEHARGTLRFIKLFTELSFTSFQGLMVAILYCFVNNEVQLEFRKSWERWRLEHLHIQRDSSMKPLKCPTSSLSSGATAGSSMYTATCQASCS

Row | Structure (SMILES) | EC50 [pM]
1 | Nc1cccc(-c2ccc3c(c2)nc(CN2CCC(c4cccc(OCc5ccc(Cl)cc5F)n4)CC2)n3C[C@@H]2CCO2)n1 [Compound 212a, 6-{2-[(4-{6-[(4-chloro-2-fluorophenyl)methoxy]pyridin-2-yl}piperidin-1-yl)methyl]-1-{[(2S)-oxetan-2-yl]methyl}-1H-1,3-benzodiazol-5-yl}pyridin-2-amine] | 7500
2 | O=C(Nc1ccc2c(c1)nc(CN1CCC(c3cccc(OCc4ccc(Cl)cc4F)n3)CC1)n2C[C@@H]1CCO1)c1cncnc1 [Compound 200a, N-{2-[(4-{6-[(4-chloro-2-fluorophenyl)methoxy]pyridin-2-yl}piperidin-1-yl)methyl]-1-{[(2S)-oxetan-2-yl]methyl}-1H-1,3-benzodiazol-5-yl}pyrimidine-5-carboxamide] | 350
3 | N#Cc1ccc(COc2cc(C3=CCN(Cc4nc5cc(-c6nnc(C(F)(F)F)[nH]6)cnc5n4C[C@@H]4CCO4)CC3)ccc2F)c(F)c1 [Compound 296a, 3-fluoro-4-[(2-fluoro-5-{1-[(3-{[(2S)-oxetan-2-yl]methyl}-6-[5-(trifluoromethyl)-4H-1,2,4-triazol-3-yl]-3H-imidazo[4,5-b]pyridin-2-yl)methyl]-1,2,3,6-tetrahydropyridin-4-yl}phenoxy)methyl]benzonitrile] | 480
4 | Fc1cc(Cl)ccc1COc1ccc(F)c(N2CCN(Cc3nc4cc(-c5nnc(C(F)(F)F)[nH]5)nnc4n3C[C@@H]3CCO3)CC2)n1 [Compound 502a, 1-{6-[(4-chloro-2-fluorophenyl)methoxy]-3-fluoropyridin-2-yl}-4-[(7-{[(2S)-oxetan-2-yl]methyl}-3-[5-(trifluoromethyl)-4H-1,2,4-triazol-3-yl]-7H-imidazo[4,5-c]pyridazin-6-yl)methyl]piperazine] | 92
5 | N#Cc1nnc(-c2cc3nc(CN4CCC(c5cccc(OCc6ccc(Cl)cc6F)n5)CC4)n(C[C@@H]4CCO4)c3nn2)[nH]1 [Compound 526a, 5-{6-[(4-{6-[(4-chloro-2-fluorophenyl)methoxy]pyridin-2-yl}piperidin-1-yl)methyl]-7-{[(2S)-oxetan-2-yl]methyl}-7H-imidazo[4,5-c]pyridazin-3-yl}-4H-1,2,4-triazole-3-carbonitrile] | 17
6 | O=C(Nc1ccc2c(c1)nc(CN1CCC(c3cccc(OCc4ccc(Cl)cc4F)n3)CC1)n2C[C@@H]1CCO1)C1CCC2(CCC2)CO1 (stereo partly drawn) [Compound 197a, N-{2-[(4-{6-[(4-chloro-2-fluorophenyl)methoxy]pyridin-2-yl}piperidin-1-yl)methyl]-1-{[(2S)-oxetan-2-yl]methyl}-1H-1,3-benzodiazol-5-yl}-6-oxaspiro[3.5]nonane-7-carboxamide] | 4300
7 | O=C1OCCN1c1ccc2c(c1)nc(CN1CCC(c3cccc(OCc4ccc(Cl)cc4F)n3)CC1)n2C[C@@H]1CCO1 [Compound 120a, 3-{2-[(4-{6-[(4-chloro-2-fluorophenyl)methoxy]pyridin-2-yl}piperidin-1-yl)methyl]-1-{[(2S)-oxetan-2-yl]methyl}-1H-1,3-benzodiazol-5-yl}-1,3-oxazolidin-2-one] | 4000
8 | Fc1cc(Cl)ccc1COc1nc(N2CCN(Cc3nc4cc(-c5nnc(C(F)(F)F)[nH]5)cnc4n3C[C@@H]3CCO3)CC2)ncc1F [Compound 511a, 4-[(4-chloro-2-fluorophenyl)methoxy]-5-fluoro-2-{4-[(3-{[(2S)-oxetan-2-yl]methyl}-6-[5-(trifluoromethyl)-4H-1,2,4-triazol-3-yl]-3H-imidazo[4,5-b]pyridin-2-yl)methyl]piperazin-1-yl}pyrimidine] | 79
9 | O=C(NC1CC1)c1ccc2c(c1)nc(CN1CCC(c3cccc(OCc4ccc(Cl)cc4F)n3)CC1)n2C[C@@H]1CCO1 [Compound 396a, 2-[(4-{6-[(4-chloro-2-fluorophenyl)methoxy]pyridin-2-yl}piperidin-1-yl)methyl]-N-cyclopropyl-1-{[(2S)-oxetan-2-yl]methyl}-1H-1,3-benzodiazole-5-carboxamide] | 3200

Results, then the compound that gave them:

Row | EC50 [pM] | Structure (SMILES)
10 | 33 | C[C@]1(c2ccc(Cl)cc2F)Oc2cccc(C3CCN(Cc4nc5cc(-c6nnc(C(F)(F)F)[nH]6)ccc5n4CC4(C#N)CC4)CC3)c2O1 [Compound 412a, 1-{[2-({4-[(2S)-2-(4-chloro-2-fluorophenyl)-2-methyl-2H-1,3-benzodioxol-4-yl]piperidin-1-yl}methyl)-5-[5-(trifluoromethyl)-4H-1,2,4-triazol-3-yl]-1H-1,3-benzodiazol-1-yl]methyl}cyclopropane-1-carbonitrile]
11 | 19 | C[C@]1(c2ccc(C#N)cc2F)Oc2cccc(C3CCN(Cc4nc5cc(-c6nnc(C(F)(F)F)[nH]6)nnc5n4C[C@@H]4CCO4)CC3)c2O1 [Compound 447a, 3-fluoro-4-[(2S)-2-methyl-4-{1-[(7-{[(2S)-oxetan-2-yl]methyl}-3-[5-(trifluoromethyl)-4H-1,2,4-triazol-3-yl]-7H-imidazo[4,5-c]pyridazin-6-yl)methyl]piperidin-4-yl}-2H-1,3-benzodioxol-2-yl]benzonitrile]
12 | 340 | Fc1cc(Cl)ccc1COc1cc(C2CCN(Cc3nc4cc(-c5nnc(C(F)(F)F)[nH]5)nnc4n3C[C@@H]3CCO3)CC2)ccc1F [Compound 520a, 4-{3-[(4-chloro-2-fluorophenyl)methoxy]-4-fluorophenyl}-1-[(7-{[(2S)-oxetan-2-yl]methyl}-3-[5-(trifluoromethyl)-4H-1,2,4-triazol-3-yl]-7H-imidazo[4,5-c]pyridazin-6-yl)methyl]piperidine]
13 | 45 | CC1(c2ccc(F)cc2Cl)Oc2cccc(C3CCN(Cc4nc5cc(-c6nnc(C(F)(F)F)[nH]6)ccc5n4C[C@@H]4CCO4)CC3)c2O1 (stereo partly drawn) [Compound 404a, 2-({4-[2-(2-chloro-4-fluorophenyl)-2-methyl-2H-1,3-benzodioxol-4-yl]piperidin-1-yl}methyl)-1-{[(2S)-oxetan-2-yl]methyl}-5-[5-(trifluoromethyl)-4H-1,2,4-triazol-3-yl]-1H-1,3-benzodiazole]
14 | 300 | CC1(c2ccc(Cl)cc2F)Oc2ccc(F)c(C3CCN(Cc4nc5cc(-c6nnc(C(F)(F)F)[nH]6)ncc5n4C[C@@H]4CCO4)CC3)c2O1 (stereo partly drawn) [Compound 458a, 4-[2-(4-chloro-2-fluorophenyl)-5-fluoro-2-methyl-2H-1,3-benzodioxol-4-yl]-1-[(3-{[(2S)-oxetan-2-yl]methyl}-6-[5-(trifluoromethyl)-4H-1,2,4-triazol-3-yl]-3H-imidazo[4,5-c]pyridin-2-yl)methyl]piperidine]
15 | 85 | Fc1cc(Cl)ccc1COc1cc(N2CCN(Cc3nc4cc(-c5nnc(C(F)(F)F)[nH]5)ncc4n3C[C@@H]3CCO3)CC2)ccc1F [Compound 456a, 1-{3-[(4-chloro-2-fluorophenyl)methoxy]-4-fluorophenyl}-4-[(3-{[(2S)-oxetan-2-yl]methyl}-6-[5-(trifluoromethyl)-4H-1,2,4-triazol-3-yl]-3H-imidazo[4,5-c]pyridin-2-yl)methyl]piperazine]
16 | 13 | C[C@]1(c2ccc(C#N)cc2F)Oc2cccc(C3CCN(Cc4nc5cc(-c6noc(=O)[nH]6)ncc5n4C[C@@H]4CCO4)CC3)c2O1 [Compound 433a, 3-fluoro-4-[(2S)-2-methyl-4-{1-[(3-{[(2S)-oxetan-2-yl]methyl}-6-(5-oxo-4,5-dihydro-1,2,4-oxadiazol-3-yl)-3H-imidazo[4,5-c]pyridin-2-yl)methyl]piperidin-4-yl}-2H-1,3-benzodioxol-2-yl]benzonitrile]
17 | 1700 | CC1(c2ccc(Cl)cc2F)Oc2cccc(C3CCN(Cc4nc5cc(-c6nnc(C(F)(F)F)[nH]6)cnc5n4C[C@@H]4CCO4)CC3)c2O1 (single isomer, unassigned) [Compound 224b]
18 | 120 | CC1(c2ccc(Cl)cc2)Oc2cccc(C3CCN(Cc4nc5cc(-c6nnc(C(F)(F)F)[nH]6)ccc5n4CC4(C#N)CC4)CC3)c2O1 (stereo not shown) [Compound 446, 1-{[2-({4-[2-(4-chlorophenyl)-2-methyl-2H-1,3-benzodioxol-4-yl]piperidin-1-yl}methyl)-5-[5-(trifluoromethyl)-4H-1,2,4-triazol-3-yl]-1H-1,3-benzodiazol-1-yl]methyl}cyclopropane-1-carbonitrile]
19 | 58900 | CC(=O)Nc1ccc2c(c1)nc(CN1CCC(c3cccc4c3OC[C@@H](c3ccc(Cl)cc3F)O4)CC1)n2C[C@@H]1CCO1 [Compound 114a, N-(2-((4-((R)-2-(4-chloro-2-fluorophenyl)-2,3-dihydrobenzo[b][1,4]dioxin-5-yl)piperidin-1-yl)methyl)-1-(((S)-oxetan-2-yl)methyl)-1H-benzo[d]imidazol-5-yl)acetamide]
20 | 64 | Fc1cc(Cl)ccc1COc1ccc(F)c(N2CCN(Cc3nc4cc(-c5nnc(C(F)(F)F)[nH]5)cnc4n3C[C@@H]3CCO3)CC2)n1 [Compound 513a, 1-{6-[(4-chloro-2-fluorophenyl)methoxy]-3-fluoropyridin-2-yl}-4-[(3-{[(2S)-oxetan-2-yl]methyl}-6-[5-(trifluoromethyl)-4H-1,2,4-triazol-3-yl]-3H-imidazo[4,5-b]pyridin-2-yl)methyl]piperazine]
21 | 1500 | C[C@]1(c2ccc(Cl)cn2)Oc2cccc(C3CCN(Cc4nc5cc(-c6nnc(C(F)(F)F)[nH]6)nnc5n4C[C@H]4CCOC4)CC3)c2O1 [Compound 474a, 5-chloro-2-[(2S)-2-methyl-4-{1-[(7-{[(3R)-oxolan-3-yl]methyl}-3-[5-(trifluoromethyl)-4H-1,2,4-triazol-3-yl]-7H-imidazo[4,5-c]pyridazin-6-yl)methyl]piperidin-4-yl}-2H-1,3-benzodioxol-2-yl]pyridine]
22 | 13 | Fc1cc(Cl)ccc1COc1cccc(C2CCN(Cc3nc4cc(-c5nnc(C(F)(F)F)[nH]5)cnc4n3C[C@@H]3CCO3)CC2)n1 [Compound 327a, 2-[(4-chloro-2-fluorophenyl)methoxy]-6-{1-[(3-{[(2S)-oxetan-2-yl]methyl}-6-[5-(trifluoromethyl)-4H-1,2,4-triazol-3-yl]-3H-imidazo[4,5-b]pyridin-2-yl)methyl]piperidin-4-yl}pyridine]
